Patent US20070196490A1, “Method of enhancing needleless transdermal powered drug delivery” (priority 1999, published 2007)

How the values were obtained:
[1] = female, human, in vivo
Method: (§1) In order to evaluate the bioavailability of a peptide drug (calcitonin) administered via particle injection, with and without post administration patch occlusion (relative to subcutaneous injection), the following clinical study was carried out.
(§2) For subcutaneous injections, Miacalcic® calcitonin product was obtained from a commercial source and contained approximately 25 μg (100 IU) of salmon calcitonin (sCT) per ml. For particle injections, the calcitonin composition was formed from sCT at 8% w/w, PVP excipient at 2% w/w, in mannitol. The calcitonin composition was then lyophilized, compressed and then milled to produce particles suitable for use in a particle injection device. […] The 38-53 μm sieve fraction was obtained using a standard mesh screen.
(§3) All particle injections were carried out using a PowderJect® model ND1 needleless syringe fitted with a porous silencer (obtained from PowderJect Technologies, Inc., Fremont, Calif.). […] The devices were operated as described in the '796 patent, using a 60 bar gas source, in order to deliver the sCT particles.
(§4) Occlusive patches were produced by cutting Parafilm® discs which were held in-place by an adhesive dressing. In experimental groups receiving an occlusive dressing, the patch was placed on the skin covering the site of particle administration after sCT delivery and left in-place for the duration of the study (4 hours).
(§5) The overall approach involved measuring pharmacokinetic and pharmacodynamic response parameters following the sCT dose in 24 healthy female subjects. The trial was designed as a single center, open, parallel group trial.
(§6) Blood samples were collected via an indwelling catheter prior to and at 2, 5, 10, 20, 30, 45, 60, 90, 120, 180 and 240 minutes following administration of the calcitonin dose. sCT plasma concentrations were determined by ELISA (PPD Development, VA).

clinical = settings: female, human, in vivo
Method: as §1, §2, §3, §4, §5, §6

mean bioavailability (BA) relative to the SC injection [1]: 5.1%
Tmax (clinical; sc): 20 min
Tmax (clinical; topical or ocular, 300 ug): 5 min
Compound: CC(C)C[C@H](NC(=O)[C@H](CCCCN)NC(=O)CNC(=O)[C@H](CC(C)C)NC(=O)[C@@H](NC(=O)[C@@H]1CSSC[C@H](N)C(=O)N[C@@H](CO)C(=O)N[C@@H](CC(N)=O)C(=O)N[C@@H](CC(C)C)C(=O)N[C@@H](CO)C(=O)N[C@@H]([C@@H](C)O)C(=O)N1)C(C)C)C(=O)N[C@@H](CO)C(=O)N[C@@H](CCC(N)=O)C(=O)N[C@@H](CCC(=O)O)C(=O)N[C@@H](CC(C)C)C(=O)N[C@@H](Cc1c[nH]cn1)C(=O)N[C@@H](CCCCN)C(=O)N[C@@H](CC(C)C)C(=O)N[C@@H](CCC(N)=O)C(=O)N[C@H](C(=O)N[C@@H](Cc1ccc(O)cc1)C(=O)N1CCC[C@H]1C(=O)N[C@@H](CCCNC(=N)N)C(=O)N[C@H](C(=O)N[C@@H](CC(N)=O)C(=O)N[C@H](C(=O)NCC(=O)N[C@@H](CO)C(=O)NCC(=O)N[C@H](C(=O)N1CCC[C@H]1C(N)=O)[C@@H](C)O)[C@@H](C)O)[C@@H](C)O)[C@@H](C)O [sCT, salmon calcitonin]
